The record followed here is ChEMBL document CHEMBL1136907, “Structural insight into human CK2alpha in complex with the potent inhibitor ellagic acid” (Bioorg Med Chem Lett, 2009).

Assay [1] is described as follows: Inhibition of rat liver CK2 by Lineweaver-Burke double reciprocal plot analysis.
Assay [2] can be described thus: Inhibition of rat liver CK2 catalytic activity.
Assay [3] in a line: Inhibition of PKA.
Assay [4] in a line: Inhibition of PKC.

pIC50, pKi: −log10 of the molar value.

As to `O=c1oc2c(O)c(O)cc3c(=O)oc4c(O)c(O)cc1c4c23` [ELLAGIC ACID], the negative logarithm of the Ki (pKi) in assay [1] is 7.70. Moreover, the negative-log IC50 (pIC50) in assay [2] was 7.40; in assay [3] it was 5.70; in assay [4] it was 5.10.

Broadly, the pKi is the Ki on a negative log10 scale, so that one unit is a factor of ten. In general, pIC50 refers to −log10 of the IC50, conventionally taken in molar units.
